Measured values from patent US20130023645A1 (priority 2006, published 2013).
Values joined by “and” are separate entries in the source; they are usually repeats but may differ in a detail not shown here. Equal values may be shown once.

Biological target: T1, neuronal-type nicotinic receptors (Bos taurus, UniProt Q07263+Q8SPU6)
T1 construct: monolayer cultures of bovine adrenal chromaffin cells; endogenous in cells; host or cells: bovine adrenal chromaffin cells (primary monolayer cultures)
Assay type: cell-based, bovine

T1 sequence (Q07263 22-495): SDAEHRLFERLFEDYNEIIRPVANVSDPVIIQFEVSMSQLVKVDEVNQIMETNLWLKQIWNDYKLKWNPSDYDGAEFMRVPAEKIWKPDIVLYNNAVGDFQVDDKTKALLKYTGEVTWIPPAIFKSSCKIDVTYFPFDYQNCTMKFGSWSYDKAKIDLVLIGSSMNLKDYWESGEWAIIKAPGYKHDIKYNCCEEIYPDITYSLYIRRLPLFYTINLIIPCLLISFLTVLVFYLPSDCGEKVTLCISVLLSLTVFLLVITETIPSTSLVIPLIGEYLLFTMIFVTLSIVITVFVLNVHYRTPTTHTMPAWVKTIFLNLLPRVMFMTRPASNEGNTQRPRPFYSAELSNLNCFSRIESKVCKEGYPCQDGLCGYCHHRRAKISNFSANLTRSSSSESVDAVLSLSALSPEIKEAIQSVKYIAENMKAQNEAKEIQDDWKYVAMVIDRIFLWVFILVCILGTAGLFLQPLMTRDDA
T1 sequence (Q8SPU6 20-496): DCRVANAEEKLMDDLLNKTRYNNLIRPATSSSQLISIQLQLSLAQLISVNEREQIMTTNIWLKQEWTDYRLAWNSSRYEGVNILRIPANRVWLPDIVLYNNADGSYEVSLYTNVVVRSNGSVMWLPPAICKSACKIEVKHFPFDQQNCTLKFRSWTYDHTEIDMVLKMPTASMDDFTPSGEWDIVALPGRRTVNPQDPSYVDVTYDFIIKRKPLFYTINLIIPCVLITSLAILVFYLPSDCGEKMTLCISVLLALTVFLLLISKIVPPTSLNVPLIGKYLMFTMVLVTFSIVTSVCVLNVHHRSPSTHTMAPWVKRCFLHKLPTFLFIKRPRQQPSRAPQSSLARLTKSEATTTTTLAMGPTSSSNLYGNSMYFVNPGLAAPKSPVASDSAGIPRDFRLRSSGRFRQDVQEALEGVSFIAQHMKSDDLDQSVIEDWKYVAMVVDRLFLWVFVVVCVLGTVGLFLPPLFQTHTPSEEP

## CN1CCCC1c1cccnc1 (centres unmarked) [NICOTINE, nicotine, reference compound]
  Adrenaline Release, mean: 4.46%
  Adrenaline Release, single determinations (1st-4th): 4.31% and 4.52% and 4.48%
  Noradrenaline Release, mean: 6.85%
  Noradrenaline Release, single determinations (1st-4th): 6.62% and 6.89% and 6.99%
  noradrenaline released, basal release (0.72%) subtracted: 6.13%
